Values joined by “and” are separate entries in the source; they are usually repeats but may differ in a detail not shown here. Equal entries are not always repeated.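 Results reflect a 48-hour exposure of cells in 96-well plates to compound at five concentrations. GI50 is the concentration that inhibits growth by half. Definition used: TGI = concentration required for complete inhibition of growth.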
How the values were obtained:
Test in all cases: NCI tumour cell line growth inhibition, 48 h
MDA-N = system: MDA-N
XF 498 CNS = system: XF 498 CNS
DMS 273 small cell lung = system: DMS 273 small cell lung
DLD-1 colon = system: DLD-1 colon
DMS 114 small cell lung = system: DMS 114 small cell lung
SNB-78 CNS = system: SNB-78 CNS
HOP-18 NSCLC = system: HOP-18 NSCLC
RXF-631 renal = system: RXF-631 renal
M19-MEL melanoma = system: M19-MEL melanoma
P388 leukemia = system: P388 leukemia

Structure (SMILES) | TGI (MDA-N) [µM] | TGI (XF 498 CNS) [µM] | TGI (DMS 273 small cell lung) [µM] | TGI (DLD-1 colon) [µM] | TGI (DMS 114 small cell lung) [µM] | TGI (SNB-78 CNS) [µM] | TGI (HOP-18 NSCLC) [µM] | TGI (RXF-631 renal) [µM] | TGI (M19-MEL melanoma) [µM] | other results
COc1cc(-c2cc(O)c(-c3ccc4ccccc4n3)c(=O)[nH]2)cc(OC)c1OC | 34.9 |  |  |  |  |  |  |  |  | 
NC(=O)/N=C1/CCC2C3CCCC2C13 |  | > 100 | > 100 | > 100 | > 100 | > 100 | > 100 |  |  | 
Oc1ccc2ccccc2c1N=Nc1ccsc1 |  |  | > 100 | > 100 | > 100 | > 100 | > 100 | > 100 | > 100 | 
CN(C)CCNC(=O)c1cccc(N(C)C(=O)c2ccccc2)c1[N+](=O)[O-] | > 100 |  |  |  |  |  |  |  |  | 
Cc1ccc(S(=O)(=O)NC2(C=O)CCCC3CCCCC32)cc1 (configuration not stated) |  |  | > 100 | > 100 | > 100 | > 100 | > 100 | > 100 | > 100 | 
CC12CCC3(OCCO3)C(OC(=O)c3ccccc3)=C1CCC21OCCO1 (configuration not stated) |  |  | > 100 | > 100 | > 100 | > 100 | > 100 | > 100 | > 100 | 
O=c1[nH]c(=S)[nH]c2c1CN(CCCN1CCOCC1)CN2 | > 100 |  |  |  |  |  |  |  |  | 
Nc1nnnn1CCO | > 100 |  |  |  |  |  |  |  |  | 
CC(Nc1ccc(S(=O)(=O)N=C(N)N)cc1)c1c2ccccc2nc2ccccc12 (configuration not stated) |  | 36.1 | > 100 | > 100 | > 100 |  |  | 96.6 | > 100 | 
Oc1ccc(C(c2ccc(O)cc2)c2ccc(O)cc2)cc1 | 56 |  |  |  |  |  |  |  |  | 
C/C(=N\NS(=O)(=O)c1ccc(C)cc1)P(=O)(O)O | > 100 |  |  |  |  |  |  |  |  | 
O=C(O)CCC(N=Cc1nc(-c2ccccc2)oc1O)C(=O)O (configuration not stated) |  |  | > 100 | > 100 | > 100 | > 100 | > 100 | > 100 | > 100 | 
O=[P+](O)c1ccsc1 |  |  | > 100 | > 100 | > 100 |  | > 100 | > 100 | > 100 | 
COC(=O)C(C(=O)C(=O)Nc1ccc([N+](=O)[O-])cc1[N+](=O)[O-])c1nc2ccc(Cl)cc2[nH]c1=O (configuration not stated) |  | > 100 | > 100 | > 100 | > 100 | > 100 | > 100 |  | > 100 | 
CC(C)([NH-])CO.CC(C)([NH-])CO.[Cl][Cd][Cl] |  | 69.1 | 30.2 |  | 46.7 |  |  |  | 38.3 | GI50 (XF 498 CNS): 20.4 µM; GI50 (DMS 273 small cell lung): 13.5 µM; GI50 (DMS 114 small cell lung): 19.8 µM; GI50 (M19-MEL melanoma): 16.9 µM
O=C(O)C1(C(=O)O)CCC1.[NH2-].[NH2-].[Pt+2] | > 250 |  | 228 | > 237 |  | 217 | 118 |  |  | GI50 (MDA-N): 182 µM and > 220 µM; GI50 (DMS 273 small cell lung): 64.7 µM; GI50 (DLD-1 colon): 206 µM; GI50 (SNB-78 CNS): 96.4 µM; GI50 (P388 leukemia): 15.4 µM; TGI (P388 leukemia): 169 µM; GI50 (HOP-18 NSCLC): > 77.3 µM and 111 µM
CC(C)O/N=C/c1cc(NC(=S)OC(C)C)ccc1Cl | > 100 |  |  |  |  |  |  |  |  | 
O=c1c(Br)cc2nc3ccccc3sc-2c1Br |  | 61.8 | > 100 | > 100 | 34.6 | > 100 |  | > 100 | 32.4 | 
COc1cc(N(C)C)c(OC)cc1/C=C\c1ccnc2ccccc12 | 3.97 |  |  |  |  |  |  |  |  | 

Structure (SMILES) | TGI (MDA-N) [µM] | TGI (XF 498 CNS) [µM] | TGI (DMS 273 small cell lung) [µM] | TGI (DLD-1 colon) [µM] | TGI (DMS 114 small cell lung) [µM] | TGI (SNB-78 CNS) [µM] | TGI (HOP-18 NSCLC) [µM] | TGI (RXF-631 renal) [µM] | TGI (M19-MEL melanoma) [µM] | other results
Cc1ccc(NC(=O)CC2Sc3ccccc3NC2=O)c(C)c1 (configuration not stated) |  | 37.5 | 37.5 | 31 | 51.7 | 63.2 | 30.2 | 33.1 | 48.2 | 
COC(=O)C(C(=O)OC)C1CCCC(=O)C1 (configuration not stated) |  | > 100 | > 100 | > 100 |  | > 100 | > 100 |  | > 100 | 
Cn1cnc([N+](=O)[O-])c1Sc1nccn1-c1cccc2ccccc12 |  | 58.9 | 79.8 | 98.5 | 62 | 77.9 | 8.89 | 84.2 | 98.9 | 
CC(=O)OC[C@@H](COC(=O)/C=C/c1ccc(O)cc1)OC1OC(CO)C(O)C(O)C1O (some centres not stated) |  | > 100 |  | > 100 |  | > 100 | > 100 | > 100 | > 100 | 
C/C(CC(=O)Nc1ccc(C)c(C)c1)=N\NC(N)=O |  |  |  | > 100 | > 100 | > 100 |  |  | > 100 | 
COc1ccc2ccccc2c1C1NC(=O)c2ccccc2N1 (configuration not stated) | 0.413 |  |  |  |  |  |  |  |  | 
Cc1cccc(C(C)(C)C)c1NC(=O)CC1C(=O)Nc2ccccc2S1(=O)=O (configuration not stated) |  | 23.1 | 14.9 | 18.3 |  | 22.1 |  |  | 24.8 | 
CCOC(=O)N1CCC(=O)C(CNC23CC4CC(CC(C4)C2)C3)C1 (configuration not stated) |  | 32.8 | 52.9 | 46.4 |  |  |  | > 100 | 35.3 | 
COc1c2ccoc2c(OC)c2oc(=O)ccc12 | > 100 |  |  |  |  |  |  |  |  | 
CN1C(=O)C2C3C=C4c5ccccc5N(c5ccccc5)C4(C2C1=O)[C@H]1C(=O)N(C)C(=O)[C@@H]31 (some centres not stated) |  | > 100 |  | > 100 | > 100 |  |  |  | > 100 | 
CCC[CH2][Sn]1([CH2]CCC)[O]CC(CN(C)Cc2ccccc2)[O]1 (configuration not stated) |  | 9.77 | 20.5 | 26.1 | 14.3 | 10.8 |  |  | 19.8 | GI50 (XF 498 CNS): 3.33 µM; GI50 (DMS 273 small cell lung): 4.93 µM; GI50 (DLD-1 colon): 12.3 µM; GI50 (DMS 114 small cell lung): 4.73 µM; GI50 (SNB-78 CNS): 2.14 µM; GI50 (M19-MEL melanoma): 6.73 µM
Cc1cccc(C)c1NC(=O)C1C(=O)N(c2c(C)cccc2C)C(=O)/C1=N\N (configuration not stated) |  |  | > 100 | > 100 |  |  | > 100 | > 100 | > 100 | 
Nc1nc2c(ncn2C2C=CC(CO)C2)c(=O)[nH]1 (configuration not stated) | > 100 |  |  |  |  |  |  |  |  | 
CC(C)=CCC/C(C)=C/CC/C(C)=C/CSc1ccccc1C(=O)O | 57.8 |  |  |  |  |  |  |  |  | 
C/C1=C/C(=O)O[C@@H]2C[C@@H](CC[C@H](C)/C=C\C=C\CC1)O[C@@](O)([C@@H]1CSC(=O)N1)C2 | > 10 |  |  |  |  |  |  |  |  | 
COC(=O)c1cccn1C(=O)n1cccc1 |  | > 100 | > 100 | > 100 | > 100 | > 100 | > 100 |  | > 100 | 
NCC1OC(n2cnc3c(N)ncnc32)CC1O (configuration not stated) | > 100 |  |  |  |  |  |  |  |  | 
CC(=O)C1C(c2ccc(N(C)C)cc2)c2cc3c(cc2OC1(C)O)OCO3 (configuration not stated) |  | > 100 | > 100 | > 100 | 93.3 | > 100 | > 100 |  | > 100 | 
CC1CCCC(C(O)CC2CC(=O)NC(=O)C2)C1O (configuration not stated) | > 100 |  |  |  |  |  |  |  |  | 

— PubChem BioAssay (NCI)
